ChEMBL document CHEMBL1145057, “Water soluble, core-modified porphyrins. 3. Synthesis, photophysical properties, and in vitro studies of photosensitization, uptake, and localization with carboxylic acid-substituted derivatives” (J Med Chem, 2003)

Experiment: Partition coefficient (logP)
Format: physicochemical
Conditions: octanol/water

| Structure (SMILES) | logP |
| --- | --- |
| O=C(O)COc1ccc(-c2c3nc(c(-c4ccccc4)c4ccc(s4)c(-c4ccccc4)c4nc(c(-c5ccc(OCC(=O)O)cc5)c5ccc2s5)C=C4)C=C3)cc1 | 0.036 |
| O=C(O)COc1ccc(-c2c3nc(c(-c4ccccc4)c4ccc(s4)c(-c4ccccc4)c4nc(c(-c5ccc(OCC(=O)O)cc5)c5ccc2[se]5)C=C4)C=C3)cc1 | -0.67 |
| O=C(O)COc1ccc(-c2c3nc(c(-c4ccc(OCC(=O)O)cc4)c4ccc(s4)c(-c4ccc(OCC(=O)O)cc4)c4nc(c(-c5ccccc5)c5ccc2s5)C=C4)C=C3)cc1 | -1.49 |
| O=C(O)COc1ccc(-c2c3nc(c(-c4ccccc4)c4ccc(s4)c(-c4ccccc4)c4nc(c(-c5ccccc5)c5ccc2s5)C=C4)C=C3)cc1 | > 3.5 |

Continued, values first:

| logP | Structure (SMILES) |
| --- | --- |
| -0.95 | O=C(O)COc1ccc(-c2c3nc(c(-c4ccc(OCC(=O)O)cc4)c4ccc(s4)c(-c4ccc(OCC(=O)O)cc4)c4nc(c(-c5ccc(OCC(=O)O)cc5)c5ccc2s5)C=C4)C=C3)cc1 |
| -1.9 | O=S(=O)(O)c1ccc(-c2c3nc(c(-c4ccc(F)cc4)c4ccc(s4)c(-c4ccc(F)cc4)c4nc(c(-c5ccc(S(=O)(=O)O)cc5)c5ccc2s5)C=C4)C=C3)cc1 |
